What was measured:
cat GLP-1R = test: Agonistic activity on GLP-1R of different species (LANCE Ultra cAMP assay): cat; format: cell-based; conditions: ratio of EC50 value of other species to human EC50 value
Description: (§1) CHO-K1 cells were seeded in a 6-well plate at 0.6×10^6 cells/well and incubated overnight in an incubator at a temperature of 37 °C and a carbon dioxide concentration of 5%. The next day, CHO-K1 cell media were replaced. Then two tubes A and B were prepared for each plasmid. 100 µL Opti-MEM was added to tube A, then 4 µL Lipofectamine™ 3000 was added and mixed uniformly. 100 µL Opti-MEM was firstly added to tube B, then 2 µg of one of the plasmids (human GLP-1R-pcDNA5 (+) plasmid, cat GLP-1R-pcDNA5 (+) plasmid, human GIPR-pcDNA5 (+) plasmid, cat GIPR-pcDNA5 (+) plasmid) was added and mixed uniformly, and 4 µL P3000™ was added to tube B and mixed uniformly (the ratio of plasmid to transfection reagent was 1 µg: 2 µL). The diluted solution in tube A was added to the diluted solution in tube B, mixed evenly, and incubated at room temperature for 15 minutes. […]
(§2) 18-20 hours after transfection, human GLP-1R-CHO, cat GLP-1R-CHO, human GIPR-CHO, cat GIPR-CHO cells were resuspended in 1×Casein Stimulation Buffer (HBSS, 5 mM HEPES, 0.5 mM IBMX, 0.1% casein, pH7.4), and seeded into a 384-well cell culture plate at 9 µL/well (cell numbers being 2000, 2000, 1000, 2000 cells/well, respectively). […] The readings at 665 nm and 620 nm were determined with a 330 nm excitation light on a microplate reader. The 665 nm/620 nm reading ratio was calculated. […]

cat GIPR = test: Agonistic activity on GIPR of different species (LANCE Ultra cAMP assay): cat; format: cell-based; conditions: ratio of EC50 value of other species to human EC50 value
Description: as §1, §2

[1] = Repeated administration on male rats for 2 weeks (toxicity, toxicokinetics); format: in vivo, SD male rats; conditions: for MTD: MTD for 2 weeks, rats; for dose at which decrease of the body weight was observed after the first administration / accumulation (toxicokinetic) / MTD at 336 h: SD male rats; for Gross Anatomy: SD male rats, 1, 3, 10 mg/kg twice a week for 2 weeks; for accumulation (toxicokinetic) / MTD at 336 h: administered twice a week for 2 weeks; for MTD at 336 h: Sprague-Dawley; for MTD at 336 h / safety window (based on exposure), times of that of Tirzepatide: rat, in vivo; for Safety Window (based on dosage): rat 2-week MTD versus efficacy dose
Description: 77 SD male rats (SPF grade) were selected and randomly divided into 10 groups based on body weight. Group 1 was the vehicle control group, including 5 animals. […] Group 5 to Group 7 were the groups administrated with the test substance 1; and Group 8 to Group 10 were the groups administrated with the test substance 2, each group including 8 animals, wherein 5 animals for primary test, and 3 animals for toxicokinetics test, and the administration dose was 1, 3 and 10 mg/kg respectively. Each of the above groups was continuously administered twice a week for 2 weeks (administrating at Day 1, Day 5, Day 8, Day 12 and Day 15).
During the experiment, the cage condition monitoring, detailed clinical observations, determination of the food consumption, determination of body weight, measurement of the blood biochemical and hematology indicator, investigation of the gross anatomy, weighing of the organ, studying on toxicokinetic were performed on all the groups of the animals.
Original data during each time period was tabulated. The average values and standard deviations and/or group change were calculated for each assay endpoint based on the group and sex. For each endpoint, the administrated group will be compared with the control group in the following aspect. A logarithmic conversion was performed to the endpoint data as desired prior to the start of the specific analyses.

human GLP-1R = human GLP-1R (Homo sapiens, UniProt P43220); test: Agonistic activity on GLP-1R of different species (LANCE Ultra cAMP assay): human; format: cell-based; design: expressed in transfected cells; host or cells: HEK293/CRE/GLP-1R clonal cells; conditions: ratio of EC50 value of other species to human EC50 value
Sequence of human GLP-1R (P43220 24-463): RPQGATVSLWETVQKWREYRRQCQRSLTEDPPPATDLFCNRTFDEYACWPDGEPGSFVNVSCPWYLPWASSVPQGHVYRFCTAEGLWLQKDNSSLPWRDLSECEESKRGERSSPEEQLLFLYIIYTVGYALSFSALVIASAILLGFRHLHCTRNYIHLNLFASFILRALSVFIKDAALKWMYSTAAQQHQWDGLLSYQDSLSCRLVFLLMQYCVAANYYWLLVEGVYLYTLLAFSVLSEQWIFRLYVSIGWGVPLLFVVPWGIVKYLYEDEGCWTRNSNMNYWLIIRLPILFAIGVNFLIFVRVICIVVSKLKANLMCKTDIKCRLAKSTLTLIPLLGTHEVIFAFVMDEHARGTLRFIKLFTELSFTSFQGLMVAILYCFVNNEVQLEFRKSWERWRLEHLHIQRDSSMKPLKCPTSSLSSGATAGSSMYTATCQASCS

SMILES | GLP-1R EC50 ratio (cat GLP-1R) | GIPR EC50 ratio (cat GIPR) | MTD [1] | dose at which decrease of the body weight was observed after the first administration [1] [mg/kg] | Gross Anatomy [1] | accumulation (toxicokinetic) [1] | MTD at 336 h [1] [mg/kg] | Safety Window (based on dosage) [1] | safety window (based on exposure), times of that of Tirzepatide [1] | GLP-1R EC50 ratio (human GLP-1R)
CC[C@H](C)[C@H](NC(=O)C(C)(C)NC(=O)[C@H](Cc1ccc(O)cc1)NC(=O)[C@H](CC(=O)O)NC(=O)[C@H](CO)NC(=O)[C@@H](NC(=O)C(C)(Cc1ccccc1)NC(=O)[C@@H](NC(=O)CNC(=O)[C@H](CCC(=O)O)NC(=O)C(C)(C)NC(=O)[C@@H](N)Cc1ccc(O)cc1)[C@@H](C)O)[C@@H](C)O)C(=O)NC(C)(C)C(=O)N[C@@H](CC(C)C)C(=O)N[C@@H](CC(=O)O)C(=O)N[C@@H](CCCCN)C(=O)N[C@@H](CCC(N)=O)C(=O)N[C@@H](C)C(=O)N[C@@H](CCC(N)=O)C(=O)N[C@@H](C)C(=O)N[C@@H](CCC(=O)O)C(=O)N[C@@H](Cc1ccccc1)C(=O)N[C@H](C(=O)N[C@@H](CCCCNC(=O)COCCOCCNC(=O)COCCOCCNC(=O)COCCOCCNC(=O)CC[C@H](NC(=O)CCCCCCCCCCCCCCCCCCCCC(=O)O)C(=O)O)C(=O)N[C@@H](Cc1c[nH]c2ccccc12)C(=O)N[C@@H](CC(C)C)C(=O)N[C@@H](CC(C)C)C(=O)N[C@@H](CCCCN)C(=O)NCC(=O)NCC(=O)N1CCC[C@H]1C(=O)N[C@@H](CO)C(=O)N[C@@H](CO)C(=O)NCC(=O)N[C@@H](C)C(=O)N1CCC[C@H]1C(=O)N1CCC[C@H]1C(=O)N1CCC[C@H]1C(=O)N[C@@H](CO)C(=O)N[C@@H](CCCCN)C(N)=O)C(C)C (some centres unmarked) [Compound P016] | 2.98 | 3.59 | 1924 nmol/kg (MTD for 2 weeks) | ≥ 1 | no abnormalities were found | no substantial accumulation | ≥ 10 | 1282 | more than 7 times | 1.00
CC[C@H](C)[C@H](NC(=O)C(C)(C)NC(=O)[C@H](Cc1ccc(O)cc1)NC(=O)[C@H](CC(=O)O)NC(=O)[C@H](CO)NC(=O)[C@@H](NC(=O)C(C)(Cc1ccccc1)NC(=O)[C@@H](NC(=O)CNC(=O)[C@H](CCC(=O)O)NC(=O)C(C)(C)NC(=O)[C@@H](N)Cc1ccc(O)cc1)[C@@H](C)O)[C@@H](C)O)C(=O)NC(C)(C)C(=O)N[C@@H](CC(C)C)C(=O)N[C@@H](CC(=O)O)C(=O)N[C@@H](CCCCN)C(=O)N[C@@H](CCC(N)=O)C(=O)N[C@@H](C)C(=O)N[C@@H](CCC(N)=O)C(=O)N[C@@H](C)C(=O)N[C@@H](CCC(=O)O)C(=O)N[C@@H](Cc1ccccc1)C(=O)N[C@H](C(=O)N[C@@H](CCCCNC(=O)COCCOCCNC(=O)COCCOCCNC(=O)CC[C@H](NC(=O)CCCCCCCCCCCCCCCCCCCCC(=O)O)C(=O)O)C(=O)N[C@@H](Cc1c[nH]c2ccccc12)C(=O)N[C@@H](CC(C)C)C(=O)N[C@@H](CC(C)C)C(=O)N[C@@H](CCCCN)C(=O)NCC(=O)NCC(=O)N1CCC[C@H]1C(=O)N[C@@H](CO)C(=O)N[C@@H](CO)C(=O)NCC(=O)N[C@@H](C)C(=O)N1CCC[C@H]1C(=O)N1CCC[C@H]1C(=O)N1CCC[C@H]1C(=O)N[C@@H](CO)C(=O)N[C@@H](CCCCN)C(N)=O)C(C)C (some centres unmarked) [Compound P014] | – | – | 1980 nmol/kg (MTD for 2 weeks) | ≥ 1 | no abnormalities were found | no substantial accumulation | ≥ 10 | 1319 | more than 4 times | –

Source: EP4813403A1, “USE OF GLP-1R/GIPR DOUBLE-TARGET AGONIST IN PREPARING ANIMAL DRUG” (Hangzhou Zhongmeihuadong Pharmaceutical Co., Ltd., priority 2023, dated 2025)
